PubChem BioAssay AID2060492 (Molecular Pharmacology Branch, DTP, NCI, 2025)

Tested on: 695427-040-R-J1-PDC complex spheroids, viability percent T/C
Experiment: Anticancer human tumor 695427-040-R-J1-PDC patient-derived colon adenocarcinoma cell line growth inhibition [GQUAD]
Details: for IC50: curve of first compound; for viability, T/C: stronger effect = lower value
Outline: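 Tumor cells were grown as complex spheroids with HUVEC endothelial cells and mesenchymal stem cells as stroma. G-quadruplex stabilizers were combined with targeted agents over half-log dilutions from near the clinical Cmax, or from 10 microM.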

[1] = second compound 0.0316 µM, first compound 0.000999 µM
[2] = second compound 0.0316 µM, first compound 0.00316 µM
[3] = second compound 0.0316 µM, first compound 0.00999 µM
[4] = second compound 0.0316 µM, first compound 0.0316 µM
[5] = second compound 0.0316 µM, first compound 0.0999 µM
[6] = second compound 0.0316 µM, first compound 0.316 µM
[7] = second compound 0.1 µM, first compound 0.000999 µM
[8] = second compound 0.1 µM, first compound 0.00316 µM
[9] = second compound 0.1 µM, first compound 0.00999 µM
[10] = second compound 0.1 µM, first compound 0.0316 µM
[11] = second compound 0.1 µM, first compound 0.0999 µM
[12] = second compound 0.1 µM, first compound 0.316 µM
[13] = second compound 0.316 µM, first compound 0.000999 µM
[14] = second compound 0.316 µM, first compound 0.00316 µM
[15] = second compound 0.316 µM, first compound 0.00999 µM
[16] = second compound 0.316 µM, first compound 0.0316 µM
[17] = second compound 0.316 µM, first compound 0.0999 µM
[18] = second compound 0.316 µM, first compound 0.316 µM
[19] = second compound 1 µM, first compound 0.000999 µM
[20] = second compound 1 µM, first compound 0.00316 µM
[21] = second compound 1 µM, first compound 0.00999 µM
[22] = second compound 1 µM, first compound 0.0316 µM
[23] = second compound 1 µM, first compound 0.0999 µM
[24] = second compound 1 µM, first compound 0.316 µM
[25] = second compound 3.16 µM, first compound 0.000999 µM
[26] = second compound 3.16 µM, first compound 0.00316 µM
[27] = second compound 3.16 µM, first compound 0.00999 µM
[28] = second compound 3.16 µM, first compound 0.0316 µM
[29] = second compound 3.16 µM, first compound 0.0999 µM
[30] = second compound 3.16 µM, first compound 0.316 µM
[31] = second compound 10 µM, first compound 0.000999 µM
[32] = second compound 10 µM, first compound 0.00316 µM
[33] = second compound 10 µM, first compound 0.00999 µM
[34] = second compound 10 µM, first compound 0.0316 µM
[35] = second compound 10 µM, first compound 0.0999 µM
[36] = second compound 10 µM, first compound 0.316 µM
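Further: spheroids exposed to compounds for seven days before readout.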

Cc1[nH]c2ccccc2c1CCNCc1ccc(/C=C/C(=O)NO)cc1 + Cc1cnc(CNC(=O)c2c(=O)c3ccc(N4CCCN(C)CC4)nc3n3c2sc2ccccc23)cn1
IC50 (second compound 0.0316 µM): > 316 nM
IC50 (second compound 0.1 µM): > 316 nM
IC50 (second compound 0.316 µM): > 316 nM
IC50 (second compound 1 µM): > 316 nM
IC50 (second compound 3.16 µM): < 0.999 nM
IC50 (second compound 10 µM): < 0.999 nM
viability, T/C [1]: 108%
viability, T/C [2]: 89.4%
viability, T/C [3]: 105%
viability, T/C [4]: 87.8%
viability, T/C [5]: 86.9%
viability, T/C [6]: 80.5%
viability, T/C [7]: 90.7%
viability, T/C [8]: 84%
viability, T/C [9]: 84.3%
viability, T/C [10]: 80.5%
viability, T/C [11]: 94.8%
viability, T/C [12]: 65.5%
viability, T/C [13]: 74.9%
viability, T/C [14]: 80.8%
viability, T/C [15]: 85.5%
viability, T/C [16]: 85%
viability, T/C [17]: 90.4%
viability, T/C [18]: 58.1%
viability, T/C [19]: 50.9%
viability, T/C [20]: 73.3%
viability, T/C [21]: 69.2%
viability, T/C [22]: 66.6%
viability, T/C [23]: 67.5%
viability, T/C [24]: 39%
viability, T/C [25]: 41.6%
viability, T/C [26]: 51.4%
viability, T/C [27]: 52.9%
viability, T/C [28]: 46.1%
viability, T/C [29]: 43.1%
viability, T/C [30]: 9.89%
viability, T/C [31]: 21.6%
viability, T/C [32]: 31.5%
viability, T/C [33]: 32%
viability, T/C [34]: 31.1%
viability, T/C [35]: 14.5%
viability, T/C [36]: 0.3%

COc1cc(C2c3cc4c(cc3C(OC3OC5COC(C)OC5C(O)C3O)C3COC(=O)C23)OCO4)cc(OC)c1O (stereo not drawn) + Cc1[nH]c2ccc(F)cc2c1-c1nc2c3cccnc3c3ncccc3c2[nH]1
IC50 (second compound 0.0316 µM): > 10000 nM
IC50 (second compound 0.1 µM): > 10000 nM
IC50 (second compound 0.316 µM): > 10000 nM
IC50 (second compound 1 µM): > 10000 nM
IC50 (second compound 3.16 µM): > 10000 nM
IC50 (second compound 10 µM): > 10000 nM
viability, T/C [4]: 118%
viability, T/C (second compound 0.0316 µM, first compound 0.1 µM): 90.7%
viability, T/C [6]: 105%
viability, T/C (second compound 0.0316 µM, first compound 1 µM): 102%
viability, T/C (second compound 0.0316 µM, first compound 3.16 µM): 87.4%
viability, T/C (second compound 0.0316 µM, first compound 10 µM): 78.1%
viability, T/C [10]: 110%
viability, T/C (second compound 0.1 µM, first compound 0.1 µM): 92.6%
viability, T/C [12]: 113%
viability, T/C (second compound 0.1 µM, first compound 1 µM): 68.8%
viability, T/C (second compound 0.1 µM, first compound 3.16 µM): 84.1%
viability, T/C (second compound 0.1 µM, first compound 10 µM): 76.7%
viability, T/C [16]: 112%
viability, T/C (second compound 0.316 µM, first compound 0.1 µM): 83.3%
viability, T/C [18]: 80.3%
viability, T/C (second compound 0.316 µM, first compound 1 µM): 87.3%
viability, T/C (second compound 0.316 µM, first compound 3.16 µM): 85.8%
viability, T/C (second compound 0.316 µM, first compound 10 µM): 74.1%
viability, T/C [22]: 91.9%
viability, T/C (second compound 1 µM, first compound 0.1 µM): 95.4%
viability, T/C [24]: 90.5%
viability, T/C (second compound 1 µM, first compound 1 µM): 87.6%
viability, T/C (second compound 1 µM, first compound 3.16 µM): 91.5%
viability, T/C (second compound 1 µM, first compound 10 µM): 71.2%
viability, T/C [28]: 81.2%
viability, T/C (second compound 3.16 µM, first compound 0.1 µM): 85.9%
viability, T/C [30]: 82.7%
viability, T/C (second compound 3.16 µM, first compound 1 µM): 82.7%
viability, T/C (second compound 3.16 µM, first compound 3.16 µM): 81.3%
viability, T/C (second compound 3.16 µM, first compound 10 µM): 69%
viability, T/C [34]: 65.9%
viability, T/C (second compound 10 µM, first compound 0.1 µM): 74.3%
viability, T/C [36]: 87%
viability, T/C (second compound 10 µM, first compound 1 µM): 83.8%
viability, T/C (second compound 10 µM, first compound 3.16 µM): 68.7%
viability, T/C (second compound 10 µM, first compound 10 µM): 64.3%

CC[C@@]1(O)C(=O)OCc2c1cc1n(c2=O)Cc2cc3c(CN(C)C)c(O)ccc3nc2-1 + Cc1cnc(CNC(=O)c2c(=O)c3ccc(N4CCCN(C)CC4)nc3n3c2sc2ccccc23)cn1
IC50 (second compound 0.0316 µM): > 316 nM
IC50 (second compound 0.1 µM): > 316 nM
IC50 (second compound 0.316 µM): > 316 nM
IC50 (second compound 1 µM): > 316 nM
IC50 (second compound 3.16 µM): < 0.999 nM
IC50 (second compound 10 µM): < 0.999 nM
viability, T/C [1]: 92.5%
viability, T/C [2]: 82.5%
viability, T/C [3]: 89.7%
viability, T/C [4]: 76%
viability, T/C [5]: 82.8%
viability, T/C [6]: 79.2%
viability, T/C [7]: 95.5%
viability, T/C [8]: 74.4%
viability, T/C [9]: 90.8%
viability, T/C [10]: 67.7%
viability, T/C [11]: 91.6%
viability, T/C [12]: 77.5%
viability, T/C [13]: 73.2%
viability, T/C [14]: 66.6%
viability, T/C [15]: 69%
viability, T/C [16]: 61.1%
viability, T/C [17]: 80.5%
viability, T/C [18]: 65.6%
viability, T/C [19]: 56.4%
viability, T/C [20]: 69.8%
viability, T/C [21]: 58.3%
viability, T/C [22]: 65.7%
viability, T/C [23]: 70.9%
viability, T/C [24]: 63.8%
viability, T/C [25]: 45.8%
viability, T/C [26]: 56.8%
viability, T/C [27]: 54.8%
viability, T/C [28]: 53.5%
viability, T/C [29]: 65.7%
viability, T/C [30]: 48.4%
viability, T/C [31]: 28.6%
viability, T/C [32]: 51.3%
viability, T/C [33]: 54%
viability, T/C [34]: 49.4%
viability, T/C [35]: 48.8%
viability, T/C [36]: 40.2%

Cn1ncnc1[C@H]1c2n[nH]c(=O)c3cc(F)cc(c23)N[C@@H]1c1ccc(F)cc1 + Cc1[nH]c2ccc(F)cc2c1-c1nc2c3cccnc3c3ncccc3c2[nH]1
IC50 (second compound 0.0316 µM): > 316 nM
IC50 (second compound 0.1 µM): > 316 nM
IC50 (second compound 0.316 µM): > 316 nM
IC50 (second compound 1 µM): > 316 nM
IC50 (second compound 3.16 µM): > 316 nM
IC50 (second compound 10 µM): > 316 nM
viability, T/C [1]: 98.9%
viability, T/C [2]: 86.2%
viability, T/C [3]: 98.2%
viability, T/C [4]: 103%
viability, T/C [5]: 104%
viability, T/C [6]: 66.6%
viability, T/C [7]: 99.1%
viability, T/C [8]: 93.8%
viability, T/C [9]: 82%
viability, T/C [10]: 79.8%
viability, T/C [11]: 97.8%
viability, T/C [12]: 66.8%
viability, T/C [13]: 99.7%
viability, T/C [14]: 84.7%
viability, T/C [15]: 91.4%
viability, T/C [16]: 89.1%
viability, T/C [17]: 103%
viability, T/C [18]: 81.9%
viability, T/C [19]: 97.4%
viability, T/C [20]: 68.8%
viability, T/C [21]: 87.5%
viability, T/C [22]: 91.3%
viability, T/C [23]: 96.1%
viability, T/C [24]: 68.2%
viability, T/C [25]: 76.8%
viability, T/C [26]: 87%
viability, T/C [27]: 85.3%
viability, T/C [28]: 79.9%
viability, T/C [29]: 83.7%
viability, T/C [30]: 86%
viability, T/C [31]: 70.9%
viability, T/C [32]: 56.1%
viability, T/C [33]: 88.3%
viability, T/C [34]: 80.5%
viability, T/C [35]: 82.7%
viability, T/C [36]: 74.3%
